Laboratory results: article PMC11148045, “Structural basis for recognition of 26RFa by the pyroglutamylated RFamide peptide receptor” (Cell Discovery, 2024)
No end group written: not given here.

Legend:
Test in all cases: 26RFa-induced calcium mobilization, receptor mutants
Format in all cases: cell-based
[1] = biological target: T1, QRFPR mutants (Homo sapiens, UniProt Q96P65); conditions: HEK293, QRFPR Δ1-18; HEK293, Fluo-4; mean ± S.E.M., n ≥ 3
T1 construct: expressed in transfected cells; host or cells: HEK293, transient transfection by electroporation
T1 sequence (Q96P65 19-431, stated change not applied): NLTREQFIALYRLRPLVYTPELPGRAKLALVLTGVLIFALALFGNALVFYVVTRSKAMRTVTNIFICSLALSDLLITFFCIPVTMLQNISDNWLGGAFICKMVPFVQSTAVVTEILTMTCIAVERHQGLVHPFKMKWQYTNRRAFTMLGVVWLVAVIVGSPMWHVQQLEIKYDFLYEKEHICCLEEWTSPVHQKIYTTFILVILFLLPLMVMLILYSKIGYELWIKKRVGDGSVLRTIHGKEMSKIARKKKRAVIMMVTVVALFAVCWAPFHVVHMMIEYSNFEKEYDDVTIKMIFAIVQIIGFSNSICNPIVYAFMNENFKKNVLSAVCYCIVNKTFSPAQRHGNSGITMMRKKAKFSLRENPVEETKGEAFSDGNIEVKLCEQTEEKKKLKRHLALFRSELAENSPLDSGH
Experimental: (§1) The gene encoding the WT QRFPR, PrPRR, KISS1R, NPFF1R, or NPFF2R was subcloned into the pcDNA3.0 vector with the addition of an N-terminal HA tag. All of the mutations used for functional studies were generated by QuickChange PCR and verified by DNA sequencing.
(§2) HEK293 cells were obtained from ATCC (Manassas, VA, USA) and cultured in DMEM supplemented with 10% (v/v) FBS, 100 mg/L penicillin, and 100 mg/L streptomycin in 5% CO2 at 37 °C. For transient transfection, ~2.5 × 10^6 cells were mixed with 2 µg plasmids in 200 µL transfection buffer, and electroporation was carried out with a Scientz-2C electroporation apparatus (Scientz Biotech, Ningbo, China). The experiments were carried out 24 h after transfection.
(§3) For QRFPR, PrRPR, and KISS1R, HEK293 cells transfected with WT receptor or its mutants were seeded at a density of 4 × 10^4 per well into 96-well culture plates and incubated for 24 h at 37 °C in 5% CO2. For NPFF1R and NPFF2R, plasmids were transfected into HEK293 cells stably expressing Gα16. On the next day, cells were incubated with 2 μmol/L Fluo-4 AM in HBSS supplemented with 5.6 mmol/L D-glucose and 250 μmol/L sulfinpyrazone at 37 °C for 45 min. After washing, cells were added with 50 μL HBSS and incubated at room temperature for 10 min, then 25 μL agonist buffer was dispensed into the well using a FlexStation III microplate reader (Molecular Devices), and intracellular calcium change was recorded at an excitation wavelength of 485 nm and an emission wavelength of 525 nm. EC50 and Emax values for each curve were calculated by Prism 8.0 software (GraphPad Software).

[2] = biological target: T2, QRFPR mutants (Homo sapiens, UniProt Q96P65, C201A); conditions: HEK293, QRFPR C201^ECL2A; HEK293, Fluo-4; mean ± S.E.M., n ≥ 3
T2 construct: expressed in transfected cells; host or cells: HEK293, transient transfection by electroporation
T2 sequence (Q96P65 whole entry C201A): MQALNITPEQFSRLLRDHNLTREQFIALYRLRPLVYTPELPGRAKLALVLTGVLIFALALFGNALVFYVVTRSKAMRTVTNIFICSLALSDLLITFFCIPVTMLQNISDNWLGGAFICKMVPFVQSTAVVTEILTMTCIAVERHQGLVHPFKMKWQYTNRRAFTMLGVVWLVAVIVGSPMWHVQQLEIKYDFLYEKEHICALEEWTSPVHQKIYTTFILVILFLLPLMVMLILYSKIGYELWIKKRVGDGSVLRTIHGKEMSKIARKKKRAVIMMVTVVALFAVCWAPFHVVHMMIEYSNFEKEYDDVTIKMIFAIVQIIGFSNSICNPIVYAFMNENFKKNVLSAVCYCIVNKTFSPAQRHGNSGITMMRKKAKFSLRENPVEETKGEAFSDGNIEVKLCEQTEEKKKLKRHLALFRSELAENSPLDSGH
Experimental: as §1, §2, §3

[3] = biological target: T3, QRFPR mutants (Homo sapiens, UniProt Q96P65, C98A); conditions: HEK293, QRFPR C98^2.57A; HEK293, Fluo-4; mean ± S.E.M., n ≥ 3
T3 construct: expressed in transfected cells; host or cells: HEK293, transient transfection by electroporation
T3 sequence (Q96P65 whole entry C98A): as the sequence (Q96P65 whole entry C201A) above, with C98A, A201C counted along it
Experimental: as §1, §2, §3

[4] = biological target: T4, QRFPR mutants (Homo sapiens, UniProt Q96P65, D109A); conditions: HEK293, QRFPR D109^2.67A; HEK293, Fluo-4; mean ± S.E.M., n ≥ 3
T4 construct: expressed in transfected cells; host or cells: HEK293, transient transfection by electroporation
T4 sequence (Q96P65 whole entry D109A): as the sequence (Q96P65 whole entry C201A) above, with D109A, A201C counted along it
Experimental: as §1, §2, §3

[5] = biological target: T5, QRFPR mutants (Homo sapiens, UniProt Q96P65, D307A); conditions: HEK293, QRFPR D307^7.27A; HEK293, Fluo-4; mean ± S.E.M., n ≥ 3
T5 construct: expressed in transfected cells; host or cells: HEK293, transient transfection by electroporation
T5 sequence (Q96P65 whole entry D307A): as the sequence (Q96P65 whole entry C201A) above, with A201C, D307A counted along it
Experimental: as §1, §2, §3

[6] = biological target: T6, QRFPR mutants (Homo sapiens, UniProt Q96P65, I199A); conditions: HEK293, QRFPR I199^ECL2A; HEK293, Fluo-4; mean ± S.E.M., n ≥ 3
T6 construct: expressed in transfected cells; host or cells: HEK293, transient transfection by electroporation
T6 sequence (Q96P65 whole entry I199A): as the sequence (Q96P65 whole entry C201A) above, with I199A, A201C counted along it
Experimental: as §1, §2, §3

[7] = biological target: T7, QRFPR mutants (Homo sapiens, UniProt Q96P65, K189A); conditions: HEK293, QRFPR K189^ECL2A; HEK293, Fluo-4; mean ± S.E.M., n ≥ 3
T7 construct: expressed in transfected cells; host or cells: HEK293, transient transfection by electroporation
T7 sequence (Q96P65 whole entry K189A): as the sequence (Q96P65 whole entry C201A) above, with K189A, A201C counted along it
Experimental: as §1, §2, §3

[8] = biological target: T8, QRFPR mutants (Homo sapiens, UniProt Q96P65, L104A); conditions: HEK293, QRFPR L104^2.62A; HEK293, Fluo-4; mean ± S.E.M., n ≥ 3
T8 construct: expressed in transfected cells; host or cells: HEK293, transient transfection by electroporation
T8 sequence (Q96P65 whole entry L104A): as the sequence (Q96P65 whole entry C201A) above, with L104A, A201C counted along it
Experimental: as §1, §2, §3

[9] = biological target: T9, QRFPR mutants (Homo sapiens, UniProt Q96P65, L202A); conditions: HEK293, QRFPR L202^45.51A; HEK293, Fluo-4; mean ± S.E.M., n ≥ 3
T9 construct: expressed in transfected cells; host or cells: HEK293, transient transfection by electroporation
T9 sequence (Q96P65 whole entry L202A): as the sequence (Q96P65 whole entry C201A) above, with A201C, L202A counted along it
Experimental: as §1, §2, §3

[10] = biological target: T10, QRFPR mutants (Homo sapiens, UniProt Q96P65, L222A)
T10 construct: expressed in transfected cells; host or cells: HEK293, transient transfection by electroporation
T10 sequence (Q96P65 whole entry L222A): as the sequence (Q96P65 whole entry C201A) above, with A201C, L222A counted along it
Experimental: as §1, §2, §3

[11] = biological target: T11, QRFPR mutants (Homo sapiens, UniProt Q96P65, N110A); conditions: HEK293, QRFPR N110^23.49A; HEK293, Fluo-4; mean ± S.E.M., n ≥ 3
T11 construct: expressed in transfected cells; host or cells: HEK293, transient transfection by electroporation
T11 sequence (Q96P65 whole entry N110A): as the sequence (Q96P65 whole entry C201A) above, with N110A, A201C counted along it
Experimental: as §1, §2, §3

[12] = biological target: T12, QRFPR mutants (Homo sapiens, UniProt Q96P65, P122A); conditions: HEK293, QRFPR P122^3.29A; HEK293, Fluo-4; mean ± S.E.M., n ≥ 3
T12 construct: expressed in transfected cells; host or cells: HEK293, transient transfection by electroporation
T12 sequence (Q96P65 whole entry P122A): as the sequence (Q96P65 whole entry C201A) above, with P122A, A201C counted along it
Experimental: as §1, §2, §3

[13] = biological target: T13, QRFPR mutants (Homo sapiens, UniProt Q96P65, Q125A); conditions: HEK293, QRFPR Q125^3.32A; HEK293, Fluo-4; mean ± S.E.M., n ≥ 3
T13 construct: expressed in transfected cells; host or cells: HEK293, transient transfection by electroporation
T13 sequence (Q96P65 whole entry Q125A): as the sequence (Q96P65 whole entry C201A) above, with Q125A, A201C counted along it
Experimental: as §1, §2, §3

[14] = biological target: T14, QRFPR mutants (Homo sapiens, UniProt Q96P65, Q184A); conditions: HEK293, QRFPR Q184^4.64A; HEK293, Fluo-4; mean ± S.E.M., n ≥ 3
T14 construct: expressed in transfected cells; host or cells: HEK293, transient transfection by electroporation
T14 sequence (Q96P65 whole entry Q184A): as the sequence (Q96P65 whole entry C201A) above, with Q184A, A201C counted along it
Experimental: as §1, §2, §3

[15] = biological target: T15, QRFPR mutants (Homo sapiens, UniProt Q96P65, T215A); conditions: HEK293, QRFPR T215^5.39A; HEK293, Fluo-4; mean ± S.E.M., n ≥ 3
T15 construct: expressed in transfected cells; host or cells: HEK293, transient transfection by electroporation
T15 sequence (Q96P65 whole entry T215A): as the sequence (Q96P65 whole entry C201A) above, with A201C, T215A counted along it
Experimental: as §1, §2, §3

[16] = biological target: T16, QRFPR mutants (Homo sapiens, UniProt Q96P65, V101A); conditions: HEK293, QRFPR V101^2.59A; HEK293, Fluo-4; mean ± S.E.M., n ≥ 3
T16 construct: expressed in transfected cells; host or cells: HEK293, transient transfection by electroporation
T16 sequence (Q96P65 whole entry V101A): as the sequence (Q96P65 whole entry C201A) above, with V101A, A201C counted along it
Experimental: as §1, §2, §3

[17] = biological target: T17, QRFPR mutants (Homo sapiens, UniProt Q96P65, V121A); conditions: HEK293, QRFPR V121^3.28A; HEK293, Fluo-4; mean ± S.E.M., n ≥ 3
T17 construct: expressed in transfected cells; host or cells: HEK293, transient transfection by electroporation
T17 sequence (Q96P65 whole entry V121A): as the sequence (Q96P65 whole entry C201A) above, with V121A, A201C counted along it
Experimental: as §1, §2, §3

[18] = biological target: T18, QRFPR mutants (Homo sapiens, UniProt Q96P65, V129A); conditions: HEK293, QRFPR V129^3.36A; HEK293, Fluo-4; mean ± S.E.M., n ≥ 3
T18 construct: expressed in transfected cells; host or cells: HEK293, transient transfection by electroporation
T18 sequence (Q96P65 whole entry V129A): as the sequence (Q96P65 whole entry C201A) above, with V129A, A201C counted along it
Experimental: as §1, §2, §3

ASGPLGTLAEELSSYSRRKGGFSFRF-NH2 [26RFa]
Emax [1]: 53.2 ± 0.75% | Emax [2]: 1.84 ± 1.5% | Emax [3]: 48.4 ± 0.88% | Emax [4]: 111 ± 1.3% | Emax [5]: 106 ± 0.64% | Emax [6]: 89.7 ± 2.3% | Emax [7]: 94.9 ± 1.6% | Emax [8]: 109 ± 0.69% | Emax [9]: 101 ± 2.3% | effect of L^5.46 on peptide activity ([10]; 26RFa, QRFPR L^5.46 (Supplementary Fig. S3)): negligible effects | Emax ([10]; HEK293, QRFPR L222^5.46A, HEK293, Fluo-4, mean ± S.E.M., n ≥ 3): 99 ± 1.3% | Emax [11]: 98.6 ± 2.3% | Emax [12]: 96.7 ± 1.4% | Emax [13]: 14.1 ± 1.8% | Emax [14]: 71.4 ± 2.2% | Emax [15]: 85.8 ± 3.4% | Emax [16]: 102 ± 1.7% | Emax [17]: 106 ± 5.4% | Emax [18]: 42.7 ± 0.71%
